Assays:
[1] = target: T1, Ectonucleoside triphosphate diphosphohydrolase 3 (Homo sapiens, UniProt O75355); experiment: Competitive inhibition of human NTPDase3 using ATP as substrate preincubated for 3 mins followed by substrate addition and measured after 15 mins by Dixon and Cornish-Bowden plot analysis
T1 sequence (O75355 whole entry): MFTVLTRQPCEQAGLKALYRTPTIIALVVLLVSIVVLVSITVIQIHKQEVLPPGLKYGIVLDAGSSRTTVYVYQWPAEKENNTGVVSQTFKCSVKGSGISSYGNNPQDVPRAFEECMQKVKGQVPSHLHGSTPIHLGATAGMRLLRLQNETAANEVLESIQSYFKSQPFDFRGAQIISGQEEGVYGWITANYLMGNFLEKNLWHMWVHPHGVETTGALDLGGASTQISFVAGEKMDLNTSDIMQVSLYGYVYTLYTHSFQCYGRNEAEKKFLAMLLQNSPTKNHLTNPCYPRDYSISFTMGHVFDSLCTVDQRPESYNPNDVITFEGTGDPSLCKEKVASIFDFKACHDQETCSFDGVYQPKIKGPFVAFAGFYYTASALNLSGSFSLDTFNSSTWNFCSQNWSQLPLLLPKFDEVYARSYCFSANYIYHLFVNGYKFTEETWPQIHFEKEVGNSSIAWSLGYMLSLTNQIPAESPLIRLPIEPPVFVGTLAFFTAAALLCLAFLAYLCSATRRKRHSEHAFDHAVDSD

[2] = target: T2, Ectonucleoside triphosphate diphosphohydrolase 1 (Mus musculus, UniProt P55772); experiment: Inhibition of mouse CD39 expressed in green monkey Cos-7 cells using ATP as substrate preincubated for 3 mins followed by substrate addition by malachite green reagent based assay; format: cell-based
T2 sequence (P55772 whole entry): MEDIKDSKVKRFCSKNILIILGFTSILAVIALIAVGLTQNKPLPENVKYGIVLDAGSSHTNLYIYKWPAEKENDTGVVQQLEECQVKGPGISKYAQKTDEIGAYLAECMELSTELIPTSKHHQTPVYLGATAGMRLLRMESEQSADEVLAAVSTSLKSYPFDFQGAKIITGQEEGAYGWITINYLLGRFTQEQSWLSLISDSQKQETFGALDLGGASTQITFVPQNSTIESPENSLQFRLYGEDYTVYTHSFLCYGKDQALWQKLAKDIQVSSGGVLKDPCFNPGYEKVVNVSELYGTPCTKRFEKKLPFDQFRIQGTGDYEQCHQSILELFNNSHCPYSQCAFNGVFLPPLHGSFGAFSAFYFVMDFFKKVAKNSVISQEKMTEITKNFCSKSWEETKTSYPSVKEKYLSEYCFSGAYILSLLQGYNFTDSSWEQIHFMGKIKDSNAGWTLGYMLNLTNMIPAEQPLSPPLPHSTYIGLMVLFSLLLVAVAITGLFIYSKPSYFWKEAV

[3] = target: T3, Ectonucleoside triphosphate diphosphohydrolase 8 (Homo sapiens, UniProt Q5MY95); experiment: Inhibition of human NTPDase8 expressed in green monkey Cos-7 cells using ATP as substrate preincubated for 3 mins followed by substrate addition by malachite green reagent based assay; format: cell-based
T3 sequence (Q5MY95 whole entry): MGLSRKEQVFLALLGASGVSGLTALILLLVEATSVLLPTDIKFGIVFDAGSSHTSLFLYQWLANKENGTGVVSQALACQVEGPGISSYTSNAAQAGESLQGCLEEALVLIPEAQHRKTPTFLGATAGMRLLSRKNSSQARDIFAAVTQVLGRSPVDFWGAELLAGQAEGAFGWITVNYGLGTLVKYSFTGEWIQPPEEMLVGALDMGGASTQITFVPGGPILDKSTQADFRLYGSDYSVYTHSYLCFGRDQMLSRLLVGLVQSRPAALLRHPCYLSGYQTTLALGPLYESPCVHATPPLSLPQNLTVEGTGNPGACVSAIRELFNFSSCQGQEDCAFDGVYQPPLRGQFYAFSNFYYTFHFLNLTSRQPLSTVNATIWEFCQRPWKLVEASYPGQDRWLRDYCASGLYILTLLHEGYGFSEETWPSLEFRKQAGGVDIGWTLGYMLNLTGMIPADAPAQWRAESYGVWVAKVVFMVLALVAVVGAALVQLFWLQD

[4] = target: T4, Ectonucleoside triphosphate diphosphohydrolase 1 (Rattus norvegicus, UniProt P97687); experiment: Inhibition of rat CD39 expressed in CHO cells using ATP as substrate incubated for 10 mins by UV absorbance method; format: cell-based; conditions: cho
T4 sequence (P97687 whole entry): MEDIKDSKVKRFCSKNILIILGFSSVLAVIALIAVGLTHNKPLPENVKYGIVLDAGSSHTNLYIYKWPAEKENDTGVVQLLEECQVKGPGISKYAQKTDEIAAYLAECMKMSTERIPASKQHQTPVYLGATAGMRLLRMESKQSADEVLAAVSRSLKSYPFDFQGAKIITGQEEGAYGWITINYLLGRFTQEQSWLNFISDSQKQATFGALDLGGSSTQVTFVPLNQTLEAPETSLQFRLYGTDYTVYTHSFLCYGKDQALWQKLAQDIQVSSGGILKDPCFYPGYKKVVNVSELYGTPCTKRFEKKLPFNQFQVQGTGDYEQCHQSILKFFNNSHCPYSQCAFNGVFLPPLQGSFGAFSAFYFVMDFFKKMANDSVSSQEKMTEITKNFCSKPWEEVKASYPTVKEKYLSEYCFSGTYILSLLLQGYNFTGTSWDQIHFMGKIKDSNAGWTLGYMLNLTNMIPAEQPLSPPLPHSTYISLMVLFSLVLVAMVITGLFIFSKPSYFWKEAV

[5] = Inhibition of rat NTPDase3 expressed in CHO cells using ATP as substrate incubated for 10 mins by UV absorbance method; format: cell-based
[6] = Selectivity ratio of Ki for rat NTPDase3 expressed in CHO cells to Ki for rat CD39 expressed in CHO cells
[7] = Selectivity ratio of Ki for rat NTPDase2 expressed in CHO cells to Ki for rat CD39 expressed in CHO cells
[8] = target: T5, Ectonucleoside triphosphate diphosphohydrolase 2 (Rattus norvegicus, UniProt O35795); experiment: Inhibition of rat NTPDase2 expressed in CHO cells using ATP as substrate incubated for 10 mins by UV absorbance method; format: cell-based; conditions: cho
T5 sequence (O35795 whole entry): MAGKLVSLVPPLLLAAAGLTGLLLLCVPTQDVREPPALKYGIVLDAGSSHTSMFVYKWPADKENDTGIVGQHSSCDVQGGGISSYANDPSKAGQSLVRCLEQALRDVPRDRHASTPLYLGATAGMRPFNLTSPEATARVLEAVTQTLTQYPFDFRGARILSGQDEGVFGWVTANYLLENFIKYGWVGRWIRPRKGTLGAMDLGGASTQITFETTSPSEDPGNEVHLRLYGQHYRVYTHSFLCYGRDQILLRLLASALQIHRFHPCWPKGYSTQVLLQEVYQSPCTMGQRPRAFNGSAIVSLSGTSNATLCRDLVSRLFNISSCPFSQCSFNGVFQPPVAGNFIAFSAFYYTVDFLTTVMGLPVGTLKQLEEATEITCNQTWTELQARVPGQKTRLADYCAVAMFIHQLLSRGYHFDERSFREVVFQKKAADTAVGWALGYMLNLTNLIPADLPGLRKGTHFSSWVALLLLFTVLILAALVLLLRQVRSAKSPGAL

CCN(CC)c1ncnc2c1ncn2[C@@H]1O[C@H](COP(=O)(O)OP(=O)(O)C(Br)(Br)P(=O)(O)O)[C@@H](O)[C@H]1O
Ki [1]: 18 µM

Cc1ccc(C(=O)Nc2ccc(S(=O)(=O)O)c3cc(S(=O)(=O)O)cc(S(=O)(=O)O)c23)cc1NC(=O)c1cccc(NC(=O)Nc2cccc(C(=O)Nc3cc(C(=O)Nc4ccc(S(=O)(=O)O)c5cc(S(=O)(=O)O)cc(S(=O)(=O)O)c45)ccc3C)c2)c1 [SURAMIN]
IC50 [2]: > 100 µM | IC50 [3]: > 100 µM

Nc1c(S(=O)(=O)[O-])cc(Nc2ccc3ccccc3c2)c2c1C(=O)c1ccccc1C2=O.[Na+]
Ki [4]: 0.328 µM | Ki [5]: 2.22 µM | Ratio Ki [6]: 7 | Ratio Ki [7]: 58 | Ki [8]: 19.1 µM

Reference: ChEMBL document CHEMBL4680277, “Targeting Metabolism of Extracellular Nucleotides via Inhibition of Ectonucleotidases CD73 and CD39” (J Med Chem, 2020)
